# Assay results as given in US7915012B2, “Methods for screening for inhibitors of TRPV2 activation” (Korea University Industry and Academic Collaboration …, priority 2008, dated 2011).
# “Also recorded” adds a separate entry of the source.
# Key:
# rTRPV2 = molecular target: T1, rTRPV2 (Rattus norvegicus, UniProt Q9WUD2, A713V/L151P/T158I); assay: Whole-cell voltage-clamp recording in TRPV2 transfected HEK293T cell line; format: cell-based; details: 100 μM probenecid; +60 mV and −60 mV; n=5
# T1 construct: expressed in transfected cells; host or cells: HEK293T (ATCC CRL-11268)
# T1 sequence (Q9WUD2 1-761 L151P/T158I/A713V): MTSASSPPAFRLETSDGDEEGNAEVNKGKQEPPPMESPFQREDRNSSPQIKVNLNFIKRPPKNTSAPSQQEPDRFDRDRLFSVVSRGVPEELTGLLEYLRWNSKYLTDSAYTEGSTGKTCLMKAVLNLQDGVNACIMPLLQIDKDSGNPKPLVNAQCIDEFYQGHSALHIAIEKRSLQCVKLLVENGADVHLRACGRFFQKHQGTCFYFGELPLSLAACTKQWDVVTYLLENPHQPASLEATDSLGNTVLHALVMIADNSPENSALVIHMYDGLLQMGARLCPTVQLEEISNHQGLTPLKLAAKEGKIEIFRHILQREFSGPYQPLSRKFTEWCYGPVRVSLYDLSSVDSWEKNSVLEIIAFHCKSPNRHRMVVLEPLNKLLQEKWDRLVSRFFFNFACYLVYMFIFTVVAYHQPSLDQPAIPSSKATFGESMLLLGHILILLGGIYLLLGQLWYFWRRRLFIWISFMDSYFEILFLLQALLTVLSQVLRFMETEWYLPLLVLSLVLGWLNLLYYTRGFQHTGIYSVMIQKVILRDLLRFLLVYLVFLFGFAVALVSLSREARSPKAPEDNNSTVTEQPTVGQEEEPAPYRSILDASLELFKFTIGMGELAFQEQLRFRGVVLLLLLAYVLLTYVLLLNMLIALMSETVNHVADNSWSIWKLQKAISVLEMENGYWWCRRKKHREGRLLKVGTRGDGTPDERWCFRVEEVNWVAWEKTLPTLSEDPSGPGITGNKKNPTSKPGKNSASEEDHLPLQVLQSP
# Description: (§1) HEK293T cell line (ATCC CRL-1 1268) was transiently transfected with plasmid DNA containing polynucleotide encoding […] (SEQ. ID. NO: 1), rTRPV2 (SEQ. ID. NO: 2), mTRPV3 (SEQ. ID. NO: 3), rTRPV4 (SEQ. ID. NO: 4), mTRPM8 (SEQ. ID. NO: 5) or mTRPA1 (SEQ. ID. NO: 6).
# (§2) Particularly, the HEK293T cell line was transiently transfected with individual TRP channel plasmid (pcDNA3.1 containing polynucleotide encoding rTRPV1, rTRPV2, mTRPV3, rTRPV4, mTRPM8 or mTRPA1), and 600 ng/well of pCDNA3 (Invitrogen Corp., USA; containing green fluorescent protein (GFP) cDNA) using Fugene6 (Roche Diagnostics, USA) according to manufacturer's instruction. The transformed cells were cultured in DMEM/F12 containing 10% FBS and 1% penicillin/streptomycin in a CO2 incubator for 24 hours. The cells were replated onto poly-L-lysine-coated glass coverslips, followed by further culture for 10-24 hours.
# The TRPV2 transfected cell line prepared in Example 1 was treated with 100 μM probenecid (Sigma-Aldrich, USA) and 300 μM 2-APB (2-aminoethoxydiphenyl borate; Cayman Chemical, USA), respectively. Stock solutions were made using water, DMSO or ethanol, and were diluted with test solutions before use.
# Whole-cell voltage-clamp recording, one of the patch-clamp techniques, was performed with the transfected cell line of Example <1-1> according to the method of Bandel M, et al. (Neuron 41:849-857, 2004).
# Particularly, the extracellular solution (140 mM NaCl, 5 mM KCl, 2 mM CaCl2, 1 mM MgCl2, 10 mM HEPES; titrated to pH 7.4 with NaOH) and the pipette solution (140 mM CsCl, 5 mM EGTA, 10 mM HEPES, 2.0 mM MgATP, 0.2 mM NaGTP; titrated to pH 7.2 with CsOH) were used. The potential was held at −60 mV for 250 ms, voltage-ramp pulsed from −80 mV to +80 mV for […] and returned to −60 mV for 250 ms, which was repeated without intersweep. This experiment was repeated 5 times.
# The TRPV2 transfected cell line prepared by the method of Example 1 was treated with 100 μM probenecid, 100 μM probenecid+20 μM ruthenium red (Sigma-Aldrich, USA) and 300 μM 2-APB, respectively. […]
# mTRPM8 = molecular target: T2, mTRPM8 (Mus musculus, UniProt Q8R4D5); assay: Fluo-3 calcium imaging in TRPM8 transfected HEK293T cell line; format: cell-based; details: 100 μM probenecid
# T2 construct: expressed in transfected cells; host or cells: HEK293T (ATCC CRL-11268)
# Description: as §1, §2
# Particularly, the transfected cell line of Example <3-1> and Example <3-2> was loaded with Fluo-3AM (5 μM; Sigma Aldrich, USA) in the bath solution (140 mM NaCl, 5 mM KCl, 2 mM CaCl2, 1 mM MgCl2, 10 mM HEPES; adjusted to pH 7.4 with NaOH) containing 0.02% pluronic acid (Invitrogen, USA) at 37° C. for 1 hour. […]
# T2 sequence (Q8R4D5 whole entry): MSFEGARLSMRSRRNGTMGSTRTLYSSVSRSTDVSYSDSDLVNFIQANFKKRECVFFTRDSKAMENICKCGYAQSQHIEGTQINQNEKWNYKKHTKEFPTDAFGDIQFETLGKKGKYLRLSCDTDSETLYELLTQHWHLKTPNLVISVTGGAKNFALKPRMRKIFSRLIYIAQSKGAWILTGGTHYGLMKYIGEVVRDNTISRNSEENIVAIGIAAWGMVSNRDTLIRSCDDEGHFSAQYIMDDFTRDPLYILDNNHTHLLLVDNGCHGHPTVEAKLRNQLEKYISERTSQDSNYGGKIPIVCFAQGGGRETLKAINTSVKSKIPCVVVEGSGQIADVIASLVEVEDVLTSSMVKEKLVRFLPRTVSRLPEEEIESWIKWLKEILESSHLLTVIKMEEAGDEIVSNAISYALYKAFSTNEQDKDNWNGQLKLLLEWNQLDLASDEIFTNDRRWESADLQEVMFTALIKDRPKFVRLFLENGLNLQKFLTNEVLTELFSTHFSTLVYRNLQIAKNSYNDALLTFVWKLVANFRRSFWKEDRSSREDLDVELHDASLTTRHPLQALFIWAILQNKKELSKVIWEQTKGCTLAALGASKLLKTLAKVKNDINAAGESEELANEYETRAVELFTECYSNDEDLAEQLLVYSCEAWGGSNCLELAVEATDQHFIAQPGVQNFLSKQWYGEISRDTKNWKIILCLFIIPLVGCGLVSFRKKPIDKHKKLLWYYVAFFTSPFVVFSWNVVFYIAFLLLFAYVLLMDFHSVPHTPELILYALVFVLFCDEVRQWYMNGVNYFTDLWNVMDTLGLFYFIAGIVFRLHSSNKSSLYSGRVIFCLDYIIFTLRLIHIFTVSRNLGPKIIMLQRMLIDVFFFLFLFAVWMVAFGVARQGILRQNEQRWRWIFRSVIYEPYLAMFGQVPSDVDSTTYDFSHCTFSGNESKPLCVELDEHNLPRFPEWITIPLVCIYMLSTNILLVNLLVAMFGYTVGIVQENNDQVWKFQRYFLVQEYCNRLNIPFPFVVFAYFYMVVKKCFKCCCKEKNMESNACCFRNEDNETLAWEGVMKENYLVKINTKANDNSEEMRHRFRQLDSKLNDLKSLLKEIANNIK
smiles,measurement,setting,value
CCCN(CCC)S(=O)(=O)c1ccc(C(=O)O)cc1 [probenecid],whole cell current (TRPV2 activation),rTRPV2,significant increase of current
same,TRPM8 activation (calcium imaging),mTRPM8,only TRPV2 was activated; also recorded: not confirmed
